Measurements reported in patent US20230114728A1 (Venatorx Pharmaceuticals, Inc., priority 2019, published 2023).
Converted amounts (≈) assume the structure as drawn.

Key:
P. aeruginosa ATCC 35151 = experiment: Broth microdilution MIC in CAMHB; format: cell-based; conditions: Pseudomonas aeruginosa, ATCC35151; MHB; hyper-permeable strain; read-out: Minimum Inhibitory Concentration, P. aeruginosa ATCC 35151
How it was run: (§1)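 CLSI broth microdilution in CAMHB: 2-fold compound dilutions inoculated at 2-8×10^5 CFU/mL from 3-5 h log-phase cultures. Incubated at 37 °C for 16-20 h (Enterobacteriaceae, Pseudomonas); MIC read visually as lowest concentration without growth. Strains include hyper-permeable and efflux-deficient mutants.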

E. coli AG100A = experiment: Broth microdilution MIC in CAMHB; format: cell-based; conditions: Escherichia coli, read-out: Minimum Inhibitory Concentration, E. coli AG100A
How it was run: as §1

[1] = test system: K. pneumoniae SI-117 producing VIM-1; experiment: Broth microdilution MIC in CAMHB; format: cell-based; conditions: Klebsiella pneumoniae, read-out: Minimum Inhibitory Concentration, K. pneumoniae SI-117
How it was run: as §1

P. aeruginosa ATCC 27853 = experiment: Broth microdilution MIC in CAMHB; format: cell-based; conditions: Pseudomonas aeruginosa, ATCC27853; MHB; read-out: Minimum Inhibitory Concentration, P. aeruginosa ATCC 27853
How it was run: as §1

P. aeruginosa PBP3 = molecular target: T1, P. aeruginosa PBP3 (Pseudomonas aeruginosa, UniProt G3XD46); experiment: Bocillin-FL fluorescence polarization competition binding assay, P. aeruginosa PBP3; conditions: fluorescence polarization competition binding assay using Bocillin-FL
T1 construct: made in house
How it was run: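 Binding of boronic acid inhibitors to purified Pseudomonas aeruginosa (PA01) PBP3 was measured by fluorescence polarization competition with Bocillin-FL, a fluorescent penicillin V. Reactions of 80 μl contained 0.75 μM PBP3 and 0.1 μM Bocillin-FL in 50 mM Hepes (pH 8.0), 300 mM NaCl and 5% (v/v) glycerol, in black 384-well plates. FP (Excitation 490 nm, Emission 520 nm) was read for up to 60 minutes. EC50 is the concentration that halves PBP-bound Bocillin-FL.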

T1 sequence (G3XD46 whole entry): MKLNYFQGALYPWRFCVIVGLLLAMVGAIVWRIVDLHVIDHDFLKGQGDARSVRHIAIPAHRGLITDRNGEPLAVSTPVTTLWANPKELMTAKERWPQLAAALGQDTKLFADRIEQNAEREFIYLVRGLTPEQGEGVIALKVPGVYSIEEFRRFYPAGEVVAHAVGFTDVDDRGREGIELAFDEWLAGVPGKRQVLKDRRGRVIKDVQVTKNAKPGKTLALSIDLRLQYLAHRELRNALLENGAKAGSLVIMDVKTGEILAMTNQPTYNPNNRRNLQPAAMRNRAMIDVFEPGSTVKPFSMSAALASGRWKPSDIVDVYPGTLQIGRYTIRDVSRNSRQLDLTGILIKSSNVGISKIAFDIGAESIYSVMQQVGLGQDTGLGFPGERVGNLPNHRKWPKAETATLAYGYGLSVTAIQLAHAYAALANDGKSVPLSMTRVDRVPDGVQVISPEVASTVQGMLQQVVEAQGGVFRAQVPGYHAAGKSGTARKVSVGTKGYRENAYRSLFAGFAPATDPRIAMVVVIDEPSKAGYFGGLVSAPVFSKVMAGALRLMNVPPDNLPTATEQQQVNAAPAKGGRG

Compound | MIC (P. aeruginosa ATCC 35151) | MIC (E. coli AG100A) | MIC [1] | MIC (P. aeruginosa ATCC 27853) | P. aeruginosa PBP3 Potency (P. aeruginosa PBP3)
CCN1CCN(C(=O)NC(C(=O)N[C@H]2Cc3cccc(C(=O)O)c3OB2O)c2cccc(N)c2)C(=O)C1=O (stereo partly drawn) [Example 72, (3R)-3-(2-(3-aminophenyl)-2-(4-ethyl-2,3-dioxopiperazine-1-carboxamido)acetamido)-2-hydroxy-3,4-dihydro-2H-benzo[e][1,2]oxaborinine-8-carboxylic acid] | 2 to 4 µg/mL (≈ 3.82 to 7.64 µM) | 2 to 4 µg/mL (≈ 3.82 to 7.64 µM) | > 128 µg/mL | > 128 µg/mL | D (D represents a potency <10 μM)
O=C(Nc1ccccc1)NC(C(=O)N[C@H]1Cc2ccc(F)c(C(=O)O)c2OB1O)c1ncc(O)cc1F (stereo partly drawn) [Example 49, (3R)-7-fluoro-3-(2-(3-fluoro-5-hydroxypyridin-2-yl)-2-(3-phenylureido)acetamido)-2-hydroxy-3,4-dihydro-2H-benzo[e][1,2]oxaborinine-8-carboxylic acid] | 2 to 4 µg/mL (≈ 3.9 to 7.81 µM) | > 128 µg/mL | > 128 µg/mL | > 128 µg/mL | D (D represents a potency <10 μM)
NCCN1CCN(C(=O)N[C@H](C(=O)N[C@H]2Cc3cccc(C(=O)O)c3OB2O)c2ccc(C(=O)O)cc2)C(=O)C1=O (single isomer, unassigned) [Example 83] | 0.5 to 1 µg/mL (≈ 0.881 to 1.76 µM) | 8 to 16 µg/mL (≈ 14.1 to 28.2 µM) | > 128 µg/mL | 32 to 64 µg/mL (≈ 56.4 to 113 µM) | C (C represents a potency between 10 and 30 μM)
CCN1CCN(C(=O)NC(C(=O)N[C@H]2Cc3cccc(C(=O)O)c3OB2O)c2ccc(O)c(NS(C)(=O)=O)c2)C(=O)C1=O (stereo partly drawn) [Example 22, (3R)-3-(2-(4-ethyl-2,3-dioxopiperazine-1-carboxamido)-2-(4-hydroxy-3-(methylsulfonamido)phenyl)acetamido)-2-hydroxy-3,4-dihydro-2H-benzo[e][1,2]oxaborinine-8-carboxylic acid] | 0.5 to 1 µg/mL (≈ 0.81 to 1.62 µM) | 2 to 4 µg/mL (≈ 3.24 to 6.48 µM) | 32 to 64 µg/mL (≈ 51.8 to 104 µM) | > 128 µg/mL | D (D represents a potency <10 μM)
NCCN1CCN(C(=O)N[C@H](C(=O)N[C@H]2Cc3cccc(C(=O)O)c3OB2O)c2ccc(O)cc2Cl)C(=O)C1=O (single isomer, unassigned) [Example 85] | 2 to 4 µg/mL (≈ 3.49 to 6.97 µM) | 32 to 64 µg/mL (≈ 55.8 to 112 µM) | > 128 µg/mL | > 128 µg/mL | C (C represents a potency between 10 and 30 μM)
CCN1CCN(C(=O)N[C@@H](C(=O)N[C@H]2Cc3cccc(C(=O)O)c3OB2O)c2cc(Cl)c(O)cc2Cl)C(=O)C1=O (single isomer, unassigned) [Example 91] | 0.5 to 1 µg/mL (≈ 0.843 to 1.69 µM) | 2 to 4 µg/mL (≈ 3.37 to 6.74 µM) | > 128 µg/mL | > 128 µg/mL | D (D represents a potency <10 μM)
NC(=O)c1ccc(C(NC(=O)N2CCN(CCF)C(=O)C2=O)C(=O)N[C@H]2Cc3cccc(C(=O)O)c3OB2O)cc1O (stereo partly drawn) [Example 46, (3R)-3-(2-(4-carbamoyl-3-hydroxyphenyl)-2-(4-(2-fluoroethyl)-2,3-dioxopiperazine-1-carboxamido)acetamido)-2-hydroxy-3,4-dihydro-2H-benzo[e][1,2]oxaborinine-8-carboxylic acid] | < 0.25 µg/mL | 2 to 4 µg/mL (≈ 3.42 to 6.83 µM) | 32 to 64 µg/mL (≈ 54.7 to 109 µM) | > 128 µg/mL | D (D represents a potency <10 μM)
CCN1CCN(C(=O)NC(C(=O)N[C@H]2Cc3cccc(C(=O)O)c3OB2O)c2cc(O)ccc2O)C(=O)C1=O (stereo partly drawn) [Example 77, (3R)-3-(2-(2,5-dihydroxyphenyl)-2-(4-ethyl-2,3-dioxopiperazine-1-carboxamido)acetamido)-2-hydroxy-3,4-dihydro-2H-benzo[e][1,2]oxaborinine-8-carboxylic acid] | 8 to 16 µg/mL (≈ 14.8 to 29.6 µM) | 32 to 64 µg/mL (≈ 59.2 to 118 µM) | > 128 µg/mL | > 128 µg/mL | B (B represents a potency between 30 μM and 500 μM inclusive)
CCN1CCN(C(=O)NC(C(=O)N[C@H]2Cc3ccc(F)c(C(=O)O)c3OB2O)c2ccc(C(=O)O)cc2)C(=O)C1=O (stereo partly drawn) [Example 15, (3R)-3-(2-(4-carboxyphenyl)-2-(4-ethyl-2,3-dioxopiperazine-1-carboxamido)acetamido)-7-fluoro-2-hydroxy-3,4-dihydro-2H-benzo[e][1,2]oxaborinine-8-carboxylic acid] | < 0.25 µg/mL | 32 to 64 µg/mL (≈ 56.1 to 112 µM) | > 128 µg/mL | 32 to 64 µg/mL (≈ 56.1 to 112 µM) | D (D represents a potency <10 μM)
CCN1CCN(C(=O)NC(C(=O)N[C@H]2Cc3cccc(C(=O)O)c3OB2O)c2ccc(O)c(NS(N)(=O)=O)c2)C(=O)C1=O (stereo partly drawn) [Example 30, (3R)-3-(2-(4-ethyl-2,3-dioxopiperazine-1-carboxamido)-2-(4-hydroxy-3-(sulfamoylamino)phenyl)acetamido)-2-hydroxy-3,4-dihydro-2H-benzo[e][1,2]oxaborinine-8-carboxylic acid] | 0.5 to 1 µg/mL (≈ 0.809 to 1.62 µM) | 2 to 4 µg/mL (≈ 3.23 to 6.47 µM) | 32 to 64 µg/mL (≈ 51.7 to 103 µM) | > 128 µg/mL | D (D represents a potency <10 μM)
NCCN1CCN(C(=O)N[C@@H](C(=O)N[C@H]2Cc3cccc(C(=O)O)c3OB2O)c2ccc(O)cc2Cl)C(=O)C1=O (single isomer, unassigned) [Example 86] | 0.5 to 1 µg/mL (≈ 0.871 to 1.74 µM) | 2 to 4 µg/mL (≈ 3.49 to 6.97 µM) | 32 to 64 µg/mL (≈ 55.8 to 112 µM) | > 128 µg/mL | D (D represents a potency <10 μM)
CCN1CCN(C(=O)NC(C(=O)N[C@H]2Cc3cccc(C(=O)O)c3OB2O)c2ncc(C(=O)O)cc2F)C(=O)C1=O (stereo partly drawn) [Example 20, 6-(2-(((R)-8-carboxy-2-hydroxy-3,4-dihydro-2H-benzo[e][1,2]oxaborinin-3-yl)amino)-1-(4-ethyl-2,3-dioxopiperazine-1-carboxamido)-2-oxoethyl)-5-fluoronicotinic acid] | 0.5 to 1 µg/mL (≈ 0.875 to 1.75 µM) | 8 to 16 µg/mL (≈ 14 to 28 µM) | > 128 µg/mL | > 128 µg/mL | D (D represents a potency <10 μM)
CCN1CCN(C(=O)NC(C(=O)N[C@H]2Cc3cccc(C(=O)O)c3OB2O)c2cccc(O)c2)C(=O)C1=O (stereo partly drawn) [Example 68, (3R)-3-(2-(4-ethyl-2,3-dioxopiperazine-1-carboxamido)-2-(3-hydroxyphenyl)acetamido)-2-hydroxy-3,4-dihydro-2H-benzo[e][1,2]oxaborinine-8-carboxylic acid] | 0.5 to 1 µg/mL (≈ 0.954 to 1.91 µM) | 2 to 4 µg/mL (≈ 3.81 to 7.63 µM) | 32 to 64 µg/mL (≈ 61 to 122 µM) | > 128 µg/mL | D (D represents a potency <10 μM)
CCN1CCN(C(=O)NC(C(=O)N[C@H]2Cc3ccc(CO)c(C(=O)O)c3OB2O)c2csc(N)n2)C(O)C1=O (stereo partly drawn) [Example 58, (3R)-3-(2-(2-aminothiazol-4-yl)-2-(4-ethyl-2-hydroxy-3-oxopiperazine-1-carboxamido)acetamido)-2-hydroxy-7-(hydroxymethyl)-3,4-dihydro-2H-benzo[el][1,2]oxaborinine-8-carboxylic acid] | 8 to 16 µg/mL (≈ 14.2 to 28.5 µM) | > 128 µg/mL | > 128 µg/mL | – | B (B represents a potency between 30 μM and 500 μM inclusive)
CCN1CCN(C(=O)NC(C(=O)N[C@H]2Cc3ccc(OCCN)c(C(=O)O)c3OB2O)c2ccccc2)C(=O)C1=O (stereo partly drawn) [Example 60, (3R)-7-(2-aminoethoxy)-3-(2-(4-ethyl-2,3-dioxopiperazine-1-carboxamido)-2-phenylacetamido)-2-hydroxy-3,4-dihydro-2H-benzo[e][1,2]oxaborinine-8-carboxylic acid] | 2 to 4 µg/mL (≈ 3.53 to 7.05 µM) | 32 to 64 µg/mL (≈ 56.4 to 113 µM) | > 128 µg/mL | – | C (C represents a potency between 10 and 30 μM)
NCCN1CCN(C(=O)NC(C(=O)N[C@H]2Cc3cccc(C(=O)O)c3OB2O)c2c(F)cc(O)cc2Cl)C(=O)C1=O (stereo partly drawn) [Example 94, (3R)-3-(2-(4-(2-aminoethyl)-2,3-dioxopiperazine-1-carboxamido)-2-(2-chloro-6-fluoro-4-hydroxyphenyl)acetamido)-2-hydroxy-3,4-dihydro-2H-benzo[e][1,2]oxaborinine-8-carboxylic acid] | 2 to 4 µg/mL (≈ 3.38 to 6.76 µM) | 2 to 4 µg/mL (≈ 3.38 to 6.76 µM) | 32 to 64 µg/mL (≈ 54.1 to 108 µM) | > 128 µg/mL | –
CCN1CCN(C(=O)NC(C(=O)N[C@H]2Cc3ccc(O[C@@H]4CN[C@H](C(=O)N(C)C)C4)c(C(=O)O)c3OB2O)c2ccccc2)C(=O)C1=O (stereo partly drawn) [Example 59, (3R)-7-(((3S,5S)-5-(dimethylcarbamoyl)pyrrolidin-3-yl)oxy)-3-(2-(4-ethyl-2,3-dioxopiperazine-1-carboxamido)-2-phenylacetamido)-2-hydroxy-3,4-dihydro-2H-benzo[e][1,2]oxaborinine-8-carboxylic acid] | 0.5 to 1 µg/mL (≈ 0.752 to 1.5 µM) | 32 to 64 µg/mL (≈ 48.2 to 96.3 µM) | > 128 µg/mL | – | –
CCN1CCN(C(=O)NC(C(=O)N[C@H]2Cc3ccc(C=O)c(C(=O)O)c3OB2O)c2csc(N)n2)C(=O)C1=O (stereo partly drawn) [Example 57, (3R)-3-(2-(2-aminothiazol-4-yl)-2-(4-ethyl-2,3-dioxopiperazine-1-carboxamido)acetamido)-7-formyl-2-hydroxy-3,4-dihydro-2H-benzo[e][1,2]oxaborinine-8-carboxylic acid] | 2 to 4 µg/mL (≈ 3.58 to 7.16 µM) | 32 to 64 µg/mL (≈ 57.3 to 115 µM) | > 128 µg/mL | – | C (C represents a potency between 10 and 30 μM)
